We go through 1 compound from patent publication US11733243B2, “Use of acamprosate to modulate ERK1/2 activation in animal models for FXS and ASD and individuals diagnosed with FXS and ASD” (Indiana University Research and Technology Corporation, priority 2013, dated 2023).

“And” between values parts separate entries of the source, which are not always exact repeats. Equal entries are not always repeated. “Also recorded” adds a separate entry of the source.

Data set [1] deals with youths symptomatic for an autistic disorder. As to conditions: mean dose 1,110 mg/day, 10 to 30 weeks; cited from earlier work.
The next data set relates to GABA(A). The following applies: animal studies; cited from earlier work.
The test system of data set [2] is fmr1 (fragile X gene) Knock Out mice. Nature of the data set: training/test exploration and P.I. in WT and fmr1 KO mice. The arrangement: training left / training right / training Total / test novel / test fam / test total: unit not given here. It counts as in vivo.
The next data set concerns sAPP. Nature of the data set: plasma sAPP total ELISA pre- and post-acamprosate. Format: in vivo, human. From the text: For sAPP levels, the Test plasma samples should be measured soon after collection. […] Just before assay, we thawed the test samples at a low temperature and mixed them completely. The plasma samples should be diluted appropriately with the EIA buffer, if needed. Duplicate measurement of test samples and standard are recommended. We used test samples in neutral pH range, and avoided the contaminations of organic solvent that may affect the measurement. Regarding the standard to quantify levels of sAPP, we prepared a series of sAPP standards in EIA buffer by serial dilutions, from 0.39 ng/mL to 25 ng/mL.
The ELISA plate was pre-coated with anti-human APP (R12A1) mouse IgG (IBL). First, the wells for reagent blank was determined, and 100 μL each of “EIA buffer” or 10 mM NaHCO3 buffer was added into the wells. Likewise, wells were assigned for test sample blank, test sample and diluted standard. Then 100 μL each of test sample blank, test sample and dilutions of standard was added into the appropriate wells. The test sample included the plasma sample from each subject, which may vary from 5-25 μl, made up to 100 μL with the EIA buffer. Each pre-coated plates was incubated overnight at 4° C. after covering it tightly with a plate lid. The plate was kept onto a rocker with gentle shaking. The next day, each well of the pre-coated plate was vigorously washed with wash buffer containing 0.05% Tween20 in phosphate buffer. This was performed by filling each well with wash buffer, leaving the pre-coated plate laid for 15-30 seconds and removing wash buffer completely from the plate by snapping. This procedure was repeated five times. After removing the remaining liquid from all wells completely by snapping the plate onto paper towel, we added 100 μL of labeled antibody solution into the wells of test samples, diluted standard and test sample blank. HRP labeled anti-Human APP (R101A4) mouse IgG from IBL was used. The plate was incubated for 30 minutes at 4° C. after covering it with plate lid, and then washed the plate 5 times in the same manner as described before. To develop the color, 100 μL of the Chromogen (TMB solution) was adding into the wells, and the plate was incubated for 30 minutes at room temperature in the dark.
When the liquid started turning blue (by addition of the Chromogen), 100 μL of the Stop solution (1N H2SO4) was added into the wells. […] A plate reader was used and measurements were conducted at 450 nm against a reagent blank. […]
The first project enrolled 12 youth aged 5 to 17 years with fragile X syndrome and comorbid ASD in a 10-week open-label trial of acamprosate. […] Plasma sAPP total and sAPPα were determined separately in serum using the ELISA kit obtained from Immuno Biological Laboratories (IBL, Gumma, Japan). […]
A general note: In an ELISA, binding on a coated surface is turned into a signal by an enzyme label.

Data set [3] in a line: safety and adverse effects in the autistic disorder trial. It counts as in vivo, human. As to conditions: idiopathic ASD, nine patients, range 600-1,998 mg/day. Here is the method: A 12-week single-blind, placebo-controlled trial of the effect of acamprosate in the treatment of 12 youths with autistic disorder aged 5 to 17 years was carried out. In order to pilot test use of acamprosate in youth with autism targeting core social impairment, was conducted. All subjects and their family members were blinded to treatment status. All subjects participated in a 2 week placebo-lead-in phase prior to 10 weeks of treatment with acamprosate. For this project, enteric coated commercially available 333 mg acamprosate pills were over-encapsulated and identical matching placebo manufactured for the project. Placebo-responders, defined by a Clinical Global Impressions Improvement scale (CGI-I) score of 1 “very much improved” or 2 “much improved” (ratings anchored to core social deficits) at week 2 were asked to exit the study. During active treatment with acamprosate, dosing was increased in 333 mg increments per week over the first six weeks of active treatment to a maximum dose of 1,332 mg/day (weight<5 60 kg) or 1,998 mg/day (weight>60 kg). During the final four weeks of active drug treatment, subjects were maintained on a stable highest tolerated (optimal) dose. The primary outcome measure was the clinician-rated CGI-I anchored to symptoms of social impairment. […]

Consider `CC(=O)NCCCS(=O)(=O)O` [Acamprosate, 3-Acetamidopropane-1-sulfonic acid], for which the “youths judged treatment responders” value in data set [1] was “five of six”. The “action at GABA(A)” value with GABA(A) was “exhibits GABA(A) agonism”. For the same compound, the “training P.I. average (mean)” value in data set [2] (KO Acam group, KO Sal 0.022521, WT Sal 0.193298) is recorded as 0.06358. The “test P.I. average (mean)” value in data set [2] (KO Acam group, KO Sal 0.134837, WT Sal 0.167142) was determined as 0.2684. Also, in data set [2] (KO Acam, individual mice), the “test P.I.” value is 0.3192 and 0.2294 and 0.5255 and 0.2717 and 0.3025 and −0.1161 and 0.3463; the test fam was 24.3 and 40.3 and 28.38 and 28.7 and 32.28 and 47.59 and 30.2; the test novel is 47.09 and 64.3 and 91.23 and 50.11 and 60.28 and 37.69 and 62.2; the test total is 71.39 and 104.6 and 119.61 and 78.81 and 92.56 and 85.28 and 92.4. Further, in data set [2] (KO Acam, individual mice), the “training P.I.” value is 0.1811 and 0.1143 and 0.08976 and −0.105 and 0.1648 and −0.1088 and 0.1088; the “training Total” value is 89.27 and 135.74 and 82.44 and 97.27 and 78.95 and 159.13 (2×); the training left is 52.72 and 75.63 and 44.92 and 43.53 and 45.98 and 70.91 and 88.22; the training right was 36.55 and 60.11 and 37.52 and 53.74 and 32.97 and 88.22 and 70.91. In addition, the “fractional change in sAPP(total)-CP from Baseline to Week 12” value in the data set on sAPP (individual patients 1-6) was −0.8279 and −0.3066 and −0.0102 and −0.1029 and −0.437 and −0.544. Also, the “sAPP(total)-CP level, Week 12” value in the data set on sAPP (individual patients 1-6, after treatment) is 5.561 ng/mL and 25.16 ng/mL and 12.84 ng/mL and 8.077 ng/mL and 56.8 ng/mL and 7.547 ng/mL. In addition, the “mean sAPP total post-treatment” value with sAPP (pooled 15 participants (9 FXS, 6 idiopathic ASD), 1,054 mg/day, pre-treatment 32.6±38.3, p=0.01) amounted to 21.4 ± 32.3 ng/mL. The “mean sAPP total at endpoint” value in the data set with sAPP (six subjects, idiopathic ASD trial, baseline 34.7, p=0.02) came out at 19.3 ng/mL. The tolerability result in data set [3] is “well tolerated with no adverse effects leading to drug discontinuation or laboratory/vital sign abnormalities noted; also recorded: well tolerated with no adverse effects leading to drug discontinuation and no vital sign or safety laboratory changes noted”.
